{"source": "BindingDB's records for doi:10.1021/acs.jmedchem.6b00703", "about": "(Novartis Institutes of Biomedical Research (Nibr), 2016)", "note": "pIC50: −log10 of the molar value."}
{"test": "Inhibition of PDGFR-beta driven proliferation of rat A10 cells after 68 hrs in presence of rat recombinant PDGF-BB by cell titer-glo luminescence assay"}
{"molecule": "Cc1ccc(NC(=O)c2ccc(CN3CCN(C)CC3)cc2)cc1Nc1nccc(-c2cccnc2)n1", "pIC50": 6.79}
{"molecule": "Cn1nccc1-c1ccn2c(C(=O)Nc3cc(C(=O)NCc4ccc(F)c(F)c4)ccc3F)cnc2c1", "pIC50": 8.52}
{"molecule": "CN1CCN(c2ccccc2CNC(=O)c2ccc(F)c(NC(=O)c3cnc4cc(-c5cccnc5)ccn34)c2)CC1", "pIC50": 8.10}
{"molecule": "C[C@@H]1CCC[C@H](C)N1CCNC(=O)c1ccc(F)c(NC(=O)c2cnc3cc(-c4ccnn4C)ccn23)c1", "pIC50": 8.06}
{"molecule": "Cn1cc(-c2ccn3c(C(=O)Nc4cc(C(=O)NCCN5CCCC5(C)C)ccc4F)cnc3c2)cn1", "pIC50": 8.77}
{"molecule": "CN1CCN(c2ccccc2CNC(=O)c2ccc(F)c(NC(=O)c3cnc4cc(-c5cnn(C)c5)ccn34)c2)CC1", "pIC50": 8.44}
{"molecule": "Cn1nccc1-c1ccn2c(C(=O)Nc3cc(C(=O)NCC4CCC(C)(C)O4)ccc3F)cnc2c1", "note": "(configuration not stated)", "pIC50": 8.57}
{"molecule": "CN(CCNC(=O)c1ccc(F)c(NC(=O)c2cnc3cc(-c4ccnn4C)ccn23)c1)C(C)(C)C", "pIC50": 7.64}
{"molecule": "CN1CCN(c2ccccc2CNC(=O)c2ccc(F)c(NC(=O)c3cnc4cc(-c5cc[nH]n5)ccn34)c2)CC1", "pIC50": 7.72}
{"molecule": "Cc1ncc(C(=O)NCCN2CCCC2(C)C)cc1NC(=O)c1cnn2cc(-c3cnn(C)c3)ccc12", "pIC50": 7.89}
{"molecule": "Cc1ccc(C(=O)NCc2ccccc2)cc1NC(=O)c1cnn2ccccc12", "pIC50": 7.92}
{"molecule": "Cc1ncc(C(=O)NCc2ccccc2N2CCN(C)CC2)cc1NC(=O)c1cnn2cc(-c3ccnn3C)ccc12", "pIC50": 7.46}
{"molecule": "CN1CCN(c2ccccc2CNC(=O)c2ccc(F)c(NC(=O)c3cnc4cc(-c5ccnn5C)ccn34)c2)CC1", "pIC50": 8.04}
{"molecule": "CN1CCN(c2ccccc2CNC(=O)c2ccc(F)c(NC(=O)c3cnn4cc(-c5ccnn5C)ccc34)c2)CC1", "pIC50": 8.00}
{"molecule": "Cn1nccc1-c1ccn2c(C(=O)Nc3cc(C(=O)NCCN4CCCC4(C)C)ccc3F)cnc2c1", "pIC50": 8.02}
{"molecule": "CCN(CCNC(=O)c1ccc(F)c(NC(=O)c2cnc3cc(-c4ccnn4C)ccn23)c1)C(C)(C)C", "pIC50": 7.66}
{"molecule": "CN1CCN(c2ccccc2CNC(=O)c2ccc(F)c(NC(=O)c3cnc4ccccn34)c2)CC1", "pIC50": 7.44}
